Data as given in patent US20250361274A1, “PEPTIDE AND PEPTIDE-CONTAINING AGENT” (PEPTIDREAM INC., priority 2022, published 2025).
“Also recorded” adds a separate entry of the source. Numbered stars: 1 amine (or outer) side, 2 acyl side, 3 side chain; on linkers, the order of the positions; unused ones are H or OH. Bridge positions count the residues as written; N and C are the ends. Square brackets hold non-standard residues; d marks the D form. Peptide text beside a SMILES is read from it. ξ: configuration not given here. X2 = O=C(C[C@@H](Cc1ccc(-c2ccccc2)cc1)C(=O)[*:2])[C@@H]1CCCN1[*:1]; Phe(4-COOH) = N[C@@H](Cc1ccc(C(=O)O)cc1)C(=O)O; Bip = N[C@@H](Cc1ccc(-c2ccccc2)cc1)C(=O)O; Nle(6-COOH) = N[C@@H](CCCCC(=O)O)C(=O)O; X1 = N=C(CN)NCCC[C@H](N[*:1])C(=O)[*:2]; Ala(4-THP) = N[C@@H](CC1CCOCC1)C(=O)O; ξE = NC(CCC(=O)O)C(=O)O; βAla = NCCC(=O)O

What was measured:
Assay type in all cases: cell-based
BMP7 = target: T1, BMP7 (Homo sapiens, UniProt P18075); experiment: BMP7 signal transduction inhibitory activity: SMAD1 phosphorylation by BMP7 stimulus, A549 cells
T1 sequence (P18075 293-431): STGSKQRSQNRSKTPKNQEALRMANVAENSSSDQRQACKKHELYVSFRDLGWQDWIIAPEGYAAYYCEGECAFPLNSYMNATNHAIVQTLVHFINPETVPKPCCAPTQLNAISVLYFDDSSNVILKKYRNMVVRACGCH
Method in brief: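 A549 cells were stimulated with 10 nM BMP7, and the read-out was SMAD1 phosphorylation. Peptides were tested at three concentrations spanning 1 to 1,000 nM, with sets depending on the peptide series. Some peptides were run in eight-point 1/3 dilutions starting from 100 nM or 1,000 nM, with recombinant human Noggin as positive control at matching concentrations.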

BMP2 = target: T2, BMP2 (Homo sapiens, UniProt P12643); experiment: BMP family signal transduction inhibition (SMAD1 phosphorylation), BMP2 stimulus
T2 sequence (P12643 283-396): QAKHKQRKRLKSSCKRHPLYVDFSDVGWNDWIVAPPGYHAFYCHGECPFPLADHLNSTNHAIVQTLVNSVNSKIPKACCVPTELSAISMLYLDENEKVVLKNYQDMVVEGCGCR
Description: (§1) In the present Example, BMP4 signal transduction inhibition peptide No. 177, peptide No. 29986 (SEQ ID NO: 277 (Example 8)), and peptide SEQ ID NO: 417 (Example 6) synthesized in Example 2, Example 8, and Example 6 were verified in the same manner as in Example 13 in order to confirm presence or absence of signal transduction inhibitory activities obtained by BMPs 2, 5, 6, 9, 12, and 14 belonging to the respective BMP families.
(§2) Regarding the concentrations of the respective BMPs in the evaluation, 0.3 nM of BMP2, 2 nM of BMP5, 3 nM of BMP6, 10 nM of BMP9 and BMP12, and 0.6 nM of BMP14 were added, followed by application of stimulus.
(§3) Regarding No. 177, the concentrations of the peptides were as follows. Specifically, eight concentrations of the peptides were used at a common ratio of 1/3 starting from 10 nM (BMP2), starting from 200 nM (BMP5), starting from 100 nM (BMP6), starting from 1,000 nM (BMP9 and BMP12), and starting from 60 nM (BMP14). The evaluation was performed in the same manner as in Example 11 except for the above points. Note that recombinant Human Noggin Protein (R&D) as a positive control was used at the same concentration as the peptide.
(§4) Regarding the peptide SEQ ID NO: 277 (Example 8), the concentrations of the peptides were as follows. […]

BMP6 = target: T3, BMP6 (Homo sapiens, UniProt P22004); experiment: BMP family signal transduction inhibition (SMAD1 phosphorylation), BMP6 stimulus
T3 sequence (P22004 375-513): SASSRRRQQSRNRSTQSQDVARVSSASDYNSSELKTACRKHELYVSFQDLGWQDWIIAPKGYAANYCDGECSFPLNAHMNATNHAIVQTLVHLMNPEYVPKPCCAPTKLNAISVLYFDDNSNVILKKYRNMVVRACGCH
Description: as §1, §2, §3, §4

CC(C)[C@@H]1NC(=O)[C@H](CCCNC(=N)N)NC(=O)[C@H](CCCCC(=O)O)NC(=O)CSC[C@@H](C(=O)NCCC(=O)NC(CCC(=O)O)C(=O)O)NC(=O)[C@H](CO)NC(=O)[C@H](Cc2ccc(C(=O)O)cc2)NC(=O)[C@H](Cc2ccc(C(=O)O)cc2)NC(=O)[C@H](Cc2ccc(O)cc2)NC(=O)[C@H](Cc2ccc(-c3ccccc3)cc2)CC(=O)[C@@H]2CCCN2C(=O)[C@H](Cc2ccc(O)cc2)NC(=O)[C@@H]2CCCN2C(=O)[C@H](Cc2ccc(-c3ccccc3)cc2)NC(=O)[C@H](CCCNC(=N)CN)NC(=O)[C@H](CC(=O)O)NC(=O)[C@H](CC2CCOCC2)NC(=O)[C@H](Cc2ccc(C(=O)O)cc2)NC1=O (stereo partly drawn) [SEQ ID No. 177] ({CH2CO}-[Nle(6-COOH)]RV[Phe(4-COOH)][Ala(4-THP)]D[X1][Bip]PY[X2]Y[Phe(4-COOH)][Phe(4-COOH)]SC[βAla][ξE]-OH; thioether N-16)
BMP7 inhibitory activity (in words) (BMP7): same level of the BMP7 inhibitory activity as Noggin; also recorded: signal transduction inhibitory activities of BMP4 and BMP7
BMP2 signal transduction inhibitory activity (in words) (BMP2): signal transduction inhibitory activities of BMP2, BMP5, and BMP6
BMP6 signal transduction inhibitory activity (in words) (BMP6): signal transduction inhibitory activities of BMP2, BMP5, and BMP6
